Results published in patent US9617310B2 (priority 2013, dated 2017).

Legend:
Format in all cases: cell-based
[1] = tested on: genotype 1b stable HCV replicon (Con1) in Huh-7-derived cells; experiment: Stable subgenomic HCV replicon, genotype 1b, Renilla luciferase; details: Hepatitis C virus, stable replicon genotype 1b, 72 h, read-out: EC50 1B RLUC
Description: Antiviral potency (EC50) was determined in both stable subgenomic HCV replicon cell lines and transient-transfected HCV replicon cells. The term half maximal effective concentration (EC50) refers to the concentration of a drug which induces a response halfway between the baseline and maximum after the exposure time specified below.
Stable subgenomic HCV replicons for genotype 1a, 1b, 2a, 3a, and 4a were established in Huh-7-derived cells as described by Lohmann et al (Lohmann V, Korner F, Koch J, et al Replication of subgenomic hepatitis C virus RNAs in a hepatoma cell line. Science 1999; 285:119-3). Each stable cell line contains a bicistronic HCV replicon that encodes a humanized Renilla luciferase (hRLuc) reporter gene fused to a selectable neomycin-resistance gene, followed by an EMCV IRES and the NS3-NS5B coding region of HCV. […] Luciferase activity was measured as a marker for intracellular HCV replication levels.
The genotype 1a stable replicon was derived from the H77 HCV strain and contained adaptive mutations P1496L and S2204I. The genotype 1b stable replicon was derived from the Con1 HCV strain and contained adaptive mutations E1202G, T1280I, and K1846T. […] The genotype 3a stable replicon was derived from the S52 HCV strain and contained adaptive mutations P1121 L, A1198T and S2210I (equivalent to S2204I in genotype 1). The genotype 4a stable replicon was derived from the ED43 HCV strain and contained adaptive mutations Q1691R and S2204I. All replicon cell lines were propagated in Huh-7-derived cells and maintained in Dulbecco's modified Eagle's Medium (DMEM) supplemented with 10% fetal bovine serum (FBS) and 0.5 mg/ml G418.
To perform EC50 assays, cells from each HCV replicon were dispensed into 384-well plates. Compounds were dissolved in DMSO at a concentration of 10 mM and diluted in DMSO using an automated pipetting instrument. Three-fold serially diluted compounds were directly added to the cells using an automated instrument. DMSO was used as a negative (solvent; no inhibition) control, and a combination of three HCV inhibitors including a protease inhibitor; an NS5A inhibitor and a nucleoside inhibitor was used at concentrations >100×EC50 as a positive control (100% inhibition). Seventy-two hours later, cells were lysed and Renilla luciferase activity were quantified as recommended by the manufacturer (Promega-Madison, Wis.). Non-linear regression was performed to calculate […], values.

[2] = tested on: genotype 3a transient HCV replicon (S52) in Huh-7-derived cells; experiment: Transient-transfected HCV replicon, genotype 3a wild type; details: Hepatitis C virus; transient-transfected replicon genotype 3a wild type, 72 h; read-out: EC50 3A WT
[3] = tested on: genotype 1a (H77) wild-type transient HCV replicon in Huh-7-derived cells; experiment: Transient-transfected HCV replicon, genotype 1a wild type; details: Hepatitis C virus; transient-transfected replicon genotype 1a wild type, 72 h; read-out: EC50 1A WT
[4] = tested on: NS3/4a protease inhibitor resistant variant R155K in genotype 1a transient HCV replicon; experiment: Transient-transfected HCV replicon, genotype 1a R155K; details: Hepatitis C virus, 72 h, read-out: EC50 1A R155K
[5] = tested on: genotype 1b wild-type transient HCV replicon in Huh-7-derived cells; experiment: Transient-transfected HCV replicon, genotype 1b wild type; details: Hepatitis C virus; transient-transfected replicon genotype 1b wild type, 72 h; read-out: EC50 1B WT
[6] = tested on: NS3/4a protease inhibitor resistant variant D168A in genotype 1b transient HCV replicon; experiment: Transient-transfected HCV replicon, genotype 1b D168A; details: Hepatitis C virus, 72 h, read-out: EC50 1B D168A

Row | SMILES | EC50 [1] [nM] | EC50 [2] [nM] | EC50 [3] [nM] | EC50 [4] [nM] | EC50 [5] [nM] | EC50 [6] [nM]
1 | CC(C)(C)[C@@H]1NC(=O)O[C@@H]2C[C@@H]3C[C@@H]3[C@H]2CCCCCc2nc3ccc4ccccc4c3nc2OC2C[C@@H](C(=O)N[C@]3(C(=O)NS(=O)(=O)C4(C)CC4)C[C@H]3C(F)F)N(C2)C1=O (stereo partly drawn) [Example 22, (33R,35S,91S,93R,94R,95S,5S)-5-(tert-butyl)-N-((1R,2R)-2-(difluoromethyl)-1-(((1-methylcyclopropyl)sulfonyl)carbamoyl)cyclopropyl)-4,7-dioxo-2,8-dioxa-6-aza-1(2,3)-benzo[f]quinoxalina-3(3,1)-pyrrolidina-9(3,4)-bicyclo[3.1.0]hexanacyclotetradecaphane-35-carboxamide] | 5.06 | 5.5 | 1.7 | 2.7 | 2 | 18
2 | CC(C)(C)[C@@H]1NC(=O)O[C@@H]2C[C@@H]3C[C@@H]3[C@H]2CCCCCn2c(nc3ccccc3c2=O)O[C@@H]2C[C@@H](C(=O)N[C@]3(C(=O)NS(=O)(=O)C4(C)CC4)C[C@H]3C(F)F)N(C2)C1=O [Example 24, (1aS,2aR,6S,9S,11R,24aR,24bS)-6-tert-butyl-N-[(1R,2R)-2-(difluoromethyl)-1-{[(1-methylcyclopropyl)sulfonyl]carbamoyl}cyclopropyl]-4,7,18-trioxo-1a,2,2a,4,5,6,7,10,11,20,21,22,23,24,24a,24b-hexadecahydro-1H,9H,18H-8,11-methanocyclopropa[4′,5′]cyclopenta[1′,2′:18,19][1,10,3,6,12]dioxatriazacyclonona decino[11,12-b]quinazoline-9-carboxamide] | 3.02 | 7.6 | 1.7 | 1.5 | 0.8 | 3.3
3 | CC(C)(C)[C@@H]1NC(=O)O[C@@H]2C[C@@H]3C[C@@H]3[C@H]2CCCCCn2c(nc3cc(C#N)ccc3c2=O)O[C@@H]2C[C@@H](C(=O)N[C@]3(C(=O)NS(=O)(=O)C4(C)CC4)C[C@H]3C(F)F)N(C2)C1=O [Example 25, (1aS,2aR,6S,9S,11R,24aR,24bS)-6-tert-butyl-15-cyano-N-[(1R,2R)-2-(difluoromethyl)-1-{[(1-methylcyclopropyl)sulfonyl]carbamoyl}cyclopropyl]-4,7,18-trioxo-1a,2,2a,4,5,6,7,10,11,20,21,22,23,24,24a,24b-hexadecahydro-1H,9H,18H-8,11-methanocyclopropa[4′,5′]cyclopenta[1′,2′:18,19][1,10,3,6,12]dioxatriazacyclonona decino[11,12-b]quinazoline-9-carboxamide] | 2.72 | 7.5 | 1.8 | 2 | 0.7 | 4.4
4 | CC(C)(C)[C@@H]1NC(=O)O[C@@H]2C[C@@H]3C[C@@H]3[C@H]2CCCCCc2nc3ccc(C#N)cc3nc2O[C@@H]2C[C@@H](C(=O)N[C@]3(C(=O)NS(=O)(=O)C4(C)CC4)C[C@H]3C(F)F)N(C2)C1=O [Example 23, (33R,35S,91S,93R,94R,95S,5S)-5-(tert-butyl)-17-cyano-N-((1R,2R)-2-(difluoromethyl)-1-(((1-methylcyclopropyl)sulfonyl)carbamoyl)cyclopropyl)-4,7-dioxo-2,8-dioxa-6-aza-1(2,3)-quinoxalina-3(3,1)-pyrrolidina-9(3,4)-bicyclo[3.1.0]hexanacyclotetradecaphane-35-carboxamide] | 2.93 | 9.5 | 1.2 | 2.3 | 0.9 | 11
5 | COc1ccc2c(=O)n3c(nc2c1)O[C@@H]1C[C@@H](C(=O)N[C@]2(C(=O)NS(=O)(=O)C4(C)CC4)C[C@H]2C(F)F)N(C1)C(=O)[C@H](C(C)(C)C)NC(=O)O[C@@H]1C[C@@H]2C[C@@H]2[C@H]1CCCCC3 [Example 26, (1aS,2aR,6S,9S,11R,24aR,24bS)-6-tert-butyl-N-[(1R,2R)-2-(difluoromethyl)-1-{[(1-methylcyclopropyl)sulfonyl]carbamoyl}cyclopropyl]-15-methoxy-4,7,18-trioxo-1a,2,2a,4,5,6,7,10,11,20,21,22,23,24,24a,24b-hexadecahydro-1H,9H,18H-8,11-methanocyclopropa[4′,5′]cyclopenta[1′,2′:18,19][1,10,3,6,12]dioxatriazacyclonona decino[11,12-b]quinazoline-9-carboxamide] | 1.83 | 4.5 | 0.8 | 1 | 0.4 | 0.9
